The values below come from patent US4148787A, “Antidiuretically effective polypeptide and a process for preparing the same” (Ferring AB, priority 1976, dated 1979).

The structures appear in SMILES notation.

Test [1] can be described thus: Relative antidiuretic activity in relation to DDAVP. The note with it: relative activity figure, DDAVP arbitrarily set at 1.00. It counts as in vivo. From the text: (§1) Thus, the strenghts in Table I are expressed as relative activity figures, data for DDAVP as a comparative compound being arbitrarily set at 1.00.
Test [2] is described as follows: Relative blood pressure (raising) activity in relation to DDAVP. The class given is in vivo.
Description: as §1

A short description of test [3]: Relative uterotonic activity in relation to DDAVP. The note with it: relative activity figure, DDAVP arbitrarily set at 1.00.
Description: as §1

In the case of `NC(=O)CC[C@@H]1NC(=O)[C@H](Cc2ccccc2)NC(=O)[C@H](Cc2ccc(O)cc2)NC(=O)CCSSC[C@@H](C(=O)N2CCC[C@H]2C(=O)N[C@H](CCCN=C(N)N)C(=O)NCC(N)=O)NC(=O)[C@H](CC(N)=O)NC1=O` [DDAVP, desamino-D-arginine^8 -vasopressin], the “Antidiuresis (relative activity)” value in test [1] came to 1.00. Further, the “Blood pressure (relative activity)” value in test [2] (relative activity figure, DDAVP arbitrarily set at 1.00) is given as 1.00. Besides, the “Uterotonic (relative activity)” value in test [3] is given as 1.00.
With `NC(=O)CC[C@@H]1NC(=O)[C@H](Cc2ccccc2)NC(=O)[C@H](Cc2ccc(O)cc2)NC(=O)[C@@H](N)CSSC[C@@H](C(=O)N2CCC[C@H]2C(=O)N[C@@H](CCCN=C(N)N)C(=O)NCC(N)=O)NC(=O)[C@H](CC(N)=O)NC1=O` [Arg-vasopressin, arginine-vasopressin], in test [1], the “Antidiuresis (relative activity)” value is listed as 0.10. Besides, in test [2] (in vivo), the “Blood pressure (relative activity)” value was 1450. In test [3], the “Uterotonic (relative activity)” value was 1.0.
